According to article PMC4000408, “No clinically significant drug interactions between lenalidomide and P-glycoprotein substrates and inhibitors: results from controlled phase I studies in healthy volunteers” (Cancer Chemotherapy and Pharmacology, 2014):
Where two headings read alike, the source gives them in different places.

Tests used:
[1] = Study 1: lenalidomide-digoxin pharmacokinetic interaction, double-blind placebo-controlled crossover in healthy subjects; conditions: for T max: median (range)
Procedure: Study 1 was designed as a double-blind, placebo-controlled, randomized, 2-period, crossover trial. Subjects were randomized to receive either lenalidomide 10 mg/day for 7 days in Study Period 1 and the matching placebo for 7 days in Study Period 2, or to receive the same two treatments in the reverse order. […] A 10-day washout separated the study periods.
For analysis of lenalidomide in plasma and urine, the assay ranges were 5–1,000 and 100–20,000 ng/mL, respectively, and the details of methods were described previously. […] C [2, 3] H7]-temsirolimus were quantitatively extracted from whole blood sample by protein precipitation extraction.
Non-compartmental pharmacokinetic parameters were estimated from drug concentration–time profiles. Major pharmacokinetic parameters included C max, time to reach C max (T max), terminal-phase half-life (t 1/2), AUC from time zero to the last measurable concentration (AUCt), AUC from time zero to infinity (AUC∞), cumulative urinary excretion as a percentage of administered dose (fe), and renal clearance (CLR).
An analysis of variance (ANOVA) was performed on the natural log-transformed pharmacokinetic parameters to estimate the percentage ratio of geometric means between treatments, and the 90 % confidence interval (CI) for key pharmacokinetic parameters.

[2] = parameters: method as in ref 15 = [15]; PMID 21825263; doi:10.1200/JCO.2010.32.4962; 15. Hofmeister CC Yang X Pichiorri F Chen P Rozewski DM Johnson AJ Lee S Liu Z Garr CL Hade EM Ji J Schaaf LJ Benson DM Jr Kraut EH Hicks WJ Chan KK Chen CS Farag SS Grever MR Byrd JC Phelps MA Phase; conditions: MM patients, cited from earlier work
[3] = Study 2, Part 2: lenalidomide-temsirolimus pharmacokinetic interaction, open-label crossover in healthy subjects; type: in vivo, human; conditions: for AUC(0-inf) / AUC(0-t) / Cmax / half-life / CL renal / fe (cumulative urinary excretion as a percentage of administered dose): geometric mean (geometric CV %); for Tmax: median (range); for CL renal: plasma and urine, read-out: CLR (renal clearance); for fe (cumulative urinary excretion as a percentage of administered dose): urine
Procedure: Study 2, Part 2 was designed as an open-label, fixed-sequence, 3-period, crossover trial. In Period 1, subjects received a single oral dose of 25 mg lenalidomide; in Period 2, subjects received a single dose of temsirolimus 25 mg via a 30-min intravenous (IV) infusion; and in Period 3, subjects received both a single 25 mg oral dose of lenalidomide and a single 25 mg IV dose of temsirolimus. Pre-treatment with IV diphenhydramine (25 mg) was administered 30 min prior to start of each temsirolimus infusion. There was a 7–10 day washout between Study Periods 1 and 2, and a minimum 14-day washout between Study Periods 2 and 3.

[4] = Safety evaluation in the phase I studies (AEs, laboratory values, ECG, vital signs); type: in vivo, human; conditions: lenalidomide given with digoxin, quinidine or temsirolimus vs lenalidomide alone or with placebo
Procedure: Safety was evaluated throughout each study by monitoring AEs, physical examinations, vital signs, clinical laboratory values, and 12-lead electrocardiogram results and was summarized using descriptive statistics.

CYP3A4 = conditions: cited from earlier work
[5] = cited from earlier work
P-gp = conditions: up to a concentration of 300 μM, P-gp expressing LLC-PK1 cell line; cited from earlier work
human P-gp = system: human P-gp; parameters: method as in ref 14, 15 = [14]; 14. Kumar GN, Surapaneni S, Lau H, Laskin O, Fox L (2008) Interaction of lenalidomide with human drug transporters in vitro [abstract 381]. ISSX Online Abstracts Supplement 3 (No. 3). Presented at the || [15]; PMID 21825263; doi:10.1200/JCO.2010.32.4962; 15. Hofmeister CC Yang X Pichiorri F Chen P Rozewski DM Johnson AJ Lee S Liu Z Garr CL Hade EM Ji J Schaaf LJ Benson DM Jr Kraut EH Hicks WJ Chan KK Chen CS Farag SS Grever MR Byrd JC Phelps MA Phase; conditions: monolayers of LLC-PK1 and MDCKII cell lines expressing human P-gp; cited from earlier work
[6] = parameters: method as in PMID 22213235; conditions: cited from earlier work
[7] = Study 2, Part 1: lenalidomide-quinidine pharmacokinetic interaction, open-label crossover in healthy subjects; type: in vivo, human; conditions: for fe (cumulative urinary excretion as a percentage of administered dose): urine
Procedure: Study 2, Part 1 was designed as an open-label, fixed-sequence, 2-period, crossover trial. In Period 1, subjects received a single oral dose of 25 mg lenalidomide. […] Study periods were separated by a washout of 7–10 days. In both periods, serial blood samples were collected, and urine samples were pooled over specified intervals for up to 48-h post-lenalidomide dosing to determine plasma and urine lenalidomide concentrations.

human P-gp transporters = conditions: read-out: Ki for inhibiting human P-gp transporters in vitro; cited from earlier work
[8] = human, temsirolimus 25 mg IV + lenalidomide 25 mg (n = 11), whole blood
[9] = human, temsirolimus 25 mg IV alone (n = 14), whole blood
[10] = human, oral, lenalidomide 25 mg alone (n = 17), plasma
[11] = human, lenalidomide 25 mg + temsirolimus 25 mg IV (n = 11), plasma
[12] = human, oral, lenalidomide 25 mg alone (n = 14), plasma, geometric mean (geometric CV %)

C[C@H]1O[C@@H](O[C@H]2[C@@H](O)C[C@H](O[C@H]3[C@@H](O)C[C@H](O[C@H]4CC[C@@]5(C)[C@H](CC[C@@H]6[C@@H]5C[C@@H](O)[C@]5(C)[C@@H](C7=CC(=O)OC7)CC[C@]65O)C4)O[C@@H]3C)O[C@@H]2C)C[C@H](O)[C@@H]1O [Digoxin]
T max ([1]; digoxin 0.5 mg + lenalidomide 10 mg/day (n = 17), plasma): 1.0 (1–3) h | T max ([1]; digoxin 0.5 mg alone (with placebo) (n = 17), plasma): 1.0 (1–3) h | AUC(0-inf) ([1]; human, plasma, oral, 0.5 mg): 26.3 ng·h/mL | AUC(0-t) ([1]; human, plasma, oral, 0.5 mg): 19.1 ng·h/mL | Cmax ([1]; human, plasma, oral, 0.5 mg): 1.69 ng/mL | half-life ([1]; human, plasma, oral, 0.5 mg): 32.3 h

CO[C@H]1C[C@@H]2CC[C@@H](C)[C@@](O)(O2)C(=O)C(=O)N2CCCC[C@H]2C(=O)O[C@H]([C@H](C)C[C@@H]2CC[C@@H](OC(=O)C(C)(CO)CO)[C@H](OC)C2)CC(=O)[C@H](C)/C=C(\C)[C@@H](O)[C@@H](OC)C(=O)[C@H](C)C[C@H](C)/C=C/C=C/C=C/1C [Temsirolimus]
C max and AUC of temsirolimus with increasing doses of lenalidomide ([2]; temsirolimus 15 mg/day, lenalidomide 15–25 mg/day): increase | 90 % CIs for the ratio of geometric means, temsirolimus alone vs temsirolimus plus lenalidomide, for C max and AUCt ([3]; human, in vivo): completely contained within the limits l of 80 and 125% | AUC(0-inf) [3, 8]: 2710 ng·h/mL | AUC(0-t) [3, 8]: 2570 ng·h/mL | Cmax [3, 8]: 649 ng/mL | half-life [3, 8]: 15.2 h | Tmax [3, 8]: 0.47 h | AUC(0-inf) [3, 9]: 2800 ng·h/mL | AUC(0-t) [3, 9]: 2670 ng·h/mL | Cmax [3, 9]: 586 ng/mL | half-life [3, 9]: 15.3 h | Tmax [3, 9]: 0.47 h

Nc1cccc2c1CN(C1CCC(=O)NC1=O)C2=O (stereo not shown) [Lenalidomide]
Number of subjects reporting AEs, or number of AEs reported [4]: no apparent increase | CYP3A4 substrate, inhibitor or inducer status (CYP3A4): not a substrate, inhibitor, or inducer of CYP3A4 | C max and AUC of lenalidomide with increasing doses of temsirolimus ([2]; lenalidomide 25 mg/day, temsirolimus 15–20 mg/day): increase | Absorption after oral administration [5]: > 90% | Administered dose eliminated by renal excretion of the unchanged drug [5]: Approximately 80% | Bioavailability ([5]; known high bioavailability): > 90% | Inhibition of P-gp-dependent transport of digoxin (P-gp): did not inhibit | AUC(0-inf) [3, 10]: 1350 ng·h/mL | AUC(0-t) [3, 10]: 1280 ng·h/mL | Cmax [3, 10]: 364 ng/mL | half-life [3, 10]: 2.81 h | Tmax [3, 10]: 0.5 h | CL renal ([3]; human, oral, lenalidomide 25 mg alone (n = 17)): 251 mL/min | CL renal ([3]; human, lenalidomide 25 mg + temsirolimus 25 mg IV (n = 11)): 229 mL/min | AUC(0-inf) [3, 11]: 1440 ng·h/mL | AUC(0-t) [3, 11]: 1370 ng·h/mL | Cmax [3, 11]: 361 ng/mL | half-life [3, 11]: 2.69 h | Tmax [3, 11]: 1 h | fe (cumulative urinary excretion as a percentage of administered dose) ([3]; lenalidomide 25 mg + temsirolimus 25 mg IV (n = 11)): 79.6 (8.0) % dose | fe (cumulative urinary excretion as a percentage of administered dose) ([3]; lenalidomide 25 mg alone (n = 17)): 81.0 (10.0) % dose | Efflux ratio (human P-gp): approximately 3 | Lenalidomide AUC with itraconazole relative to other MM patients receiving lenalidomide alone ([6]; MM patient, lenalidomide 10 mg/day + itraconazole 100 mg/day vs lenalidomide 25 mg/day alone): 12 fold | Elimination half-life (t 1/2) ([6]; with itraconazole): 5.5 h | Elimination half-life (t 1/2) ([6]; without itraconazole): 6.7 h | 90 % CIs for the ratio of geometric means, lenalidomide alone vs plus an interacting drug, for Cmax and AUC in plasma ([1]; human, in vivo): completely contained within the limits of 80 and 125% | Median time of observed Cmax of lenalidomide ([1]; human, in vivo): 0.5 to 1 h | AUC(0-inf) ([1]; human, in vivo, 10 mg): 475 ng·h/mL | AUC(0-t) ([1]; human, in vivo, 10 mg): 396 ng·h/mL | Cmax ([1]; human, in vivo, 10 mg): 119 ng/mL | Tmax ([1]; human, in vivo, 10 mg): 1 h | half-life ([1]; human, in vivo, 10 mg): 2.4 h | AUC(0-inf) [7, 12]: 1360 ng·h/mL | AUC(0-t) [7, 12]: 1290 ng·h/mL | half-life [7, 12]: 2.81 h | Cmax ([7]; human, oral, lenalidomide 25 mg alone (n = 14), plasma, geometric mean (geometric CV %), read-out: Cmax): 367 ng/mL | Tmax ([7]; human, oral, lenalidomide 25 mg alone (n = 14), plasma, median (range)): 1 h | CL renal ([7]; human, plasma and urine, oral, lenalidomide 25 mg alone (n = 14), geometric mean (geometric CV %), read-out: CLR (renal clearance)): 227 mL/min | 90 % CIs for the ratio of geometric means, lenalidomide alone vs plus an interacting drug, for renal clearance ([7]; interacting drug quinidine or temsirolimus (Study 2)): completely contained within the limits of 80 and 125% | fe (cumulative urinary excretion as a percentage of administered dose) ([7]; lenalidomide 25 mg + quinidine (n = 14), geometric mean (geometric CV %)): 70.2 (6.6) % dose | fe (cumulative urinary excretion as a percentage of administered dose) ([7]; lenalidomide 25 mg alone (n = 14), geometric mean (geometric CV %)): 74.2 (11.4) % dose | Time by which urinary excretion of unchanged lenalidomide was nearly complete ([7]; post-dose, under all treatment conditions (alone, + quinidine, + temsirolimus)): ≤ 12 h

C=C[C@H]1C[N@@]2CC[C@H]1C[C@@H]2[C@@H](O)c1ccnc2ccc(OC)cc12 [Quinidine]
Ki (human P-gp transporters): 900 nM | Estimated mean C max for unbound quinidine ([7]; assuming 15 % of unbound drug): approximately 1 μM | Cmax ([7]; human, oral, 600 mg twice daily, plasma, Day 4, CV % 24.3): 2350 ng/mL | Mean quinidine trough concentration ([7]; plasma, Days 4–5, quinidine sulfate 600 mg twice daily): 1,705 ng/mL
